Data from the NIST ThermoML archive (doi:10.1016/j.jct.2004.09.018).
Numbers after ± are expanded uncertainties.

What was measured:
[1] = Crystal
[2] = Molar enthalpy of transition or fusion; settings: Crystal
[3] = molar heat capacity at constant pressure; settings: 101.33 kPa

O=Cc1ccc([N+](=O)[O-])cc1[N+](=O)[O-] [2,4-dinitrobenzaldehyde]
Settings | Molar enthalpy of transition or fusion [kcal/mol] | Triple point temperature [K]
[1] | – | 344.91 ± 0.64
[2] | 5.06 ± 0.0669 | –

[3]
Settings | molar heat capacity at constant pressure [J/K/mol]
78.06 K, Crystal | 18.67 ± 0.96
80 K, Crystal | 19.77 ± 0.99
80.91 K, Crystal | 20.32 ± 1
82.54 K, Crystal | 21.07 ± 1
85.26 K, Crystal | 22.24 ± 1
87.46 K, Crystal | 22.9 ± 1.1
89.5 K, Crystal | 23.64 ± 1.1
91.38 K, Crystal | 24.46 ± 2.8
93.21 K, Crystal | 24.83 ± 2.8
94.98 K, Crystal | 25.29 ± 2.8
96.7 K, Crystal | 25.84 ± 2.8
98.42 K, Crystal | 26.88 ± 2.8
100.08 K, Crystal | 26.98 ± 2.8
101.76 K, Crystal | 28.11 ± 2.8
103.39 K, Crystal | 28.44 ± 2.8
105 K, Crystal | 28.62 ± 2.8
106.58 K, Crystal | 28.9 ± 2.8
108.14 K, Crystal | 29.07 ± 2.8
109.68 K, Crystal | 30.37 ± 2.9
111.2 K, Crystal | 30.49 ± 2.9
112.69 K, Crystal | 30.46 ± 2.9
114.18 K, Crystal | 31.08 ± 2.9
115.64 K, Crystal | 31.43 ± 2.9
117.09 K, Crystal | 32.01 ± 2.9
118.49 K, Crystal | 32.5 ± 2.9
119.86 K, Crystal | 32.88 ± 2.9
121.24 K, Crystal | 33.37 ± 2.9
122.59 K, Crystal | 33.47 ± 2.9
123.93 K, Crystal | 34.53 ± 2.9
125.27 K, Crystal | 34.53 ± 2.9
126.61 K, Crystal | 35.11 ± 2.9
127.96 K, Crystal | 35.79 ± 2.9
129.3 K, Crystal | 36.37 ± 2.9
130.69 K, Crystal | 36.18 ± 2.9
132.09 K, Crystal | 36.27 ± 2.9
133.43 K, Crystal | 37.34 ± 2.9
134.81 K, Crystal | 37.63 ± 2.9
136.17 K, Crystal | 37.14 ± 2.9
137.59 K, Crystal | 37.92 ± 2.9
138.97 K, Crystal | 37.37 ± 2.9
140.34 K, Crystal | 37.47 ± 2.9
141.69 K, Crystal | 37.08 ± 2.9
143.04 K, Crystal | 37.04 ± 2.9
144.37 K, Crystal | 37.54 ± 2.9
145.68 K, Crystal | 37.82 ± 2.9
146.97 K, Crystal | 37.82 ± 2.9
148.25 K, Crystal | 38.92 ± 3
149.52 K, Crystal | 39.16 ± 3
150.78 K, Crystal | 38.26 ± 3
152.03 K, Crystal | 39.82 ± 3
153.25 K, Crystal | 40.53 ± 3
154.49 K, Crystal | 40.73 ± 3
155.72 K, Crystal | 40.92 ± 3
156.96 K, Crystal | 41.6 ± 3
158.19 K, Crystal | 41.6 ± 3
159.41 K, Crystal | 42.39 ± 3
160.67 K, Crystal | 43.2 ± 3
161.9 K, Crystal | 43.2 ± 3
163.15 K, Crystal | 43.8 ± 3
164.37 K, Crystal | 44.11 ± 3
165.6 K, Crystal | 44.7 ± 3
166.79 K, Crystal | 45.28 ± 3
167.97 K, Crystal | 45.57 ± 3
169.2 K, Crystal | 45.95 ± 3
171.64 K, Crystal | 46.17 ± 3.1
175.32 K, Crystal | 46.7 ± 3.1
178.53 K, Crystal | 47.5 ± 3.1
181.57 K, Crystal | 47.76 ± 3.1
184.51 K, Crystal | 49.49 ± 3.1
187.41 K, Crystal | 49.49 ± 3.1
190.27 K, Crystal | 51.22 ± 3.1
193.04 K, Crystal | 52.12 ± 3.1
195.57 K, Crystal | 52.73 ± 3.1
198.42 K, Crystal | 54.38 ± 3.2
201.09 K, Crystal | 55.42 ± 3.2
202.7 K, Crystal | 55.05 ± 3.2
206.17 K, Crystal | 56.4 ± 3.2
208.82 K, Crystal | 57.15 ± 3.2
211.47 K, Crystal | 56.9 ± 3.2
214.01 K, Crystal | 58.62 ± 3.2
216.52 K, Crystal | 60.85 ± 3.2
219.02 K, Crystal | 60.11 ± 3.2
221.6 K, Crystal | 60.6 ± 3.2
224.29 K, Crystal | 61.84 ± 3.2
226.79 K, Crystal | 62.82 ± 3.3
229.3 K, Crystal | 62.82 ± 3.3
231.81 K, Crystal | 64.06 ± 3.3
234.37 K, Crystal | 65.17 ± 3.3
236.8 K, Crystal | 66.36 ± 3.3
239.16 K, Crystal | 67.38 ± 3.3
241.63 K, Crystal | 68.9 ± 3.3
243.96 K, Crystal | 70.6 ± 3.4
246.15 K, Crystal | 72.46 ± 3.4
248.51 K, Crystal | 72.63 ± 3.4
250.87 K, Crystal | 73.64 ± 3.4
253.13 K, Crystal | 75.85 ± 3.4
255.45 K, Crystal | 78.05 ± 3.4
257.75 K, Crystal | 79.41 ± 3.5
260 K, Crystal | 80.42 ± 3.5
262.29 K, Crystal | 81.1 ± 3.5
265.37 K, Crystal | 83.47 ± 3.5
266.84 K, Crystal | 84.66 ± 3.5
269.06 K, Crystal | 86.52 ± 3.6
271.28 K, Crystal | 88.55 ± 3.6
273.5 K, Crystal | 90.93 ± 3.6
275.72 K, Crystal | 93.3 ± 3.6
277.9 K, Crystal | 94.99 ± 3.7
280.12 K, Crystal | 96.35 ± 3.7
282.24 K, Crystal | 98.88 ± 3.7
284.45 K, Crystal | 100.75 ± 3.7
286.53 K, Crystal | 101.94 ± 3.7
288.75 K, Crystal | 103.12 ± 3.8
290.86 K, Crystal | 105.15 ± 3.8
293.05 K, Crystal | 105.66 ± 3.8
295.09 K, Crystal | 108.2 ± 3.8
297.17 K, Crystal | 110.92 ± 3.8
299.24 K, Crystal | 112.78 ± 3.9
301.25 K, Crystal | 116 ± 3.9
303.25 K, Crystal | 118.56 ± 3.9
305.33 K, Crystal | 120.3 ± 4
307.3 K, Crystal | 122.62 ± 4
309.27 K, Crystal | 124.17 ± 4
311.25 K, Crystal | 125.72 ± 4
313.22 K, Crystal | 128.04 ± 4.1
315.24 K, Crystal | 130.3 ± 4.1
317.17 K, Crystal | 132.69 ± 4.1
319.12 K, Crystal | 135.33 ± 4.2
321.07 K, Crystal | 136.59 ± 4.2
322.98 K, Crystal | 138.88 ± 4.2
324.91 K, Crystal | 141.63 ± 4.2
326.82 K, Crystal | 144.41 ± 4.3
328.67 K, Crystal | 147.92 ± 4.3
330.55 K, Crystal | 151.7 ± 4.4
332.43 K, Crystal | 154.77 ± 4.4
334.19 K, Crystal | 158.54 ± 4.4
335.92 K, Crystal | 161.76 ± 4.5
337.65 K, Crystal | 165.54 ± 4.5
339.38 K, Crystal | 169.32 ± 4.6
341.03 K, Crystal | 173.09 ± 4.6
348.1 K, Liquid | 300.29 ± 6.2
349.69 K, Liquid | 307.08 ± 6.3
351.29 K, Liquid | 313.48 ± 6.4
352.84 K, Liquid | 317.48 ± 6.4
354.37 K, Liquid | 327.47 ± 6.5
355.87 K, Liquid | 334.28 ± 6.6
357.34 K, Liquid | 342.27 ± 6.7
358.75 K, Liquid | 344.27 ± 6.7
360.22 K, Liquid | 349.07 ± 6.8
361.51 K, Liquid | 354.26 ± 6.9
362.75 K, Liquid | 357.86 ± 6.9
363.93 K, Liquid | 367.87 ± 7
365.07 K, Liquid | 373.86 ± 7.1
366.13 K, Liquid | 381.06 ± 7.2
367.12 K, Liquid | 389.86 ± 7.3
